In BindingDB's records for patent WO2025051920 (Sanofi-Aventis Deutschland, 2025):

Target: T1, Interleukin-23 subunit alpha/receptor (UniProt Q9NPF7+Q5VWK5)
T1 sequence (Q9NPF7 whole entry): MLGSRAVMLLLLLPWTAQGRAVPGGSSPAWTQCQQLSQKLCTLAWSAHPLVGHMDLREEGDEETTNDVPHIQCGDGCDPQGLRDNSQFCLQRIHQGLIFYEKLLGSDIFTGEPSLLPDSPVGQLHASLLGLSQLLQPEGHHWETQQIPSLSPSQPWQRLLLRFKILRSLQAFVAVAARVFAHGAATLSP
T1 sequence (Q5VWK5 whole entry): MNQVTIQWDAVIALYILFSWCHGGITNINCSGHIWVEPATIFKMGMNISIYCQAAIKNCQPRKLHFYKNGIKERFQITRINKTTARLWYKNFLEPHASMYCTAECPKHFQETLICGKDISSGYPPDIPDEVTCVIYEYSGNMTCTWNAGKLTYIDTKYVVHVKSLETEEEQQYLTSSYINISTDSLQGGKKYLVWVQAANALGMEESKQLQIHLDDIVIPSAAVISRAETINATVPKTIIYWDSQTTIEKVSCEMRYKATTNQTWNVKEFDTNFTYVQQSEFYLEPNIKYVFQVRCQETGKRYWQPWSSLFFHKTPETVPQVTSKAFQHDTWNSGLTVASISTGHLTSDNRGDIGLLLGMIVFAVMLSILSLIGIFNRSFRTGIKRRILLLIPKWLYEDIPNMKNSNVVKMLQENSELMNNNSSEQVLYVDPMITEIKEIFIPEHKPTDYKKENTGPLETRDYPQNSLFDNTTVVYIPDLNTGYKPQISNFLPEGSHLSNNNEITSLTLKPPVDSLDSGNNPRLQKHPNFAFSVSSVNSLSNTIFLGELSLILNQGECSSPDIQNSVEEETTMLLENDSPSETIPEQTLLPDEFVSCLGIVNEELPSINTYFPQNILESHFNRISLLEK
Assay: ELISA assay for specific human IL-23R inhibitors
In short: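 Plates coated overnight at 4 °C with human IL-23 ([…] final) and blocked. Serially diluted peptides added with recombinant human IL-23R-Fc ([…] final), 60 min at room temperature. Bound IL-23R-Fc detected with anti-human IgG1-HRP and fluorogenic peroxidase substrate.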

SMILES | IC50 [nM]
COc1ccc(C[C@@H]2NC(=O)[C@H](CCCNC(=N)N)NC(=O)[C@H](CCC(N)=O)NC(=O)[C@H](Cc3cn(C)c4ccccc34)NC(=O)[C@H]([C@@H](C)O)NC(=O)[C@H](CC(N)=O)NC(=O)[C@H](NC(C)=O)CCCCNC(=O)C[C@@H](C(=O)N[C@@H](CC(N)=O)C(=O)N[C@@H](CC(N)=O)C(=O)O)NC(=O)[C@H](CC(C)C)NC(=O)[C@H](Cc3ccc4ccccc4c3)NC2=O)cc1 [WO2025051920, Example 24] | 1.21
COc1ccc(C[C@@H]2NC(=O)[C@H](C)NC(=O)[C@H](CCC(N)=O)NC(=O)[C@H](Cc3c[nH]c4ccccc34)NC(=O)C([C@@H](C)O)NC(=O)[C@H](CC(N)=O)NC(=O)C(N)CCCCNC(=O)C[C@H](C(=O)N[C@@H](CC(N)=O)C(=O)N[C@@H](CC(N)=O)C(=O)O)NC(=O)C(C)(C)NC(=O)[C@H](Cc3ccc4ccccc4c3)NC2=O)cc1 (some centres not stated) [WO2025051920, Example 44] | 4.66
